From the supplement of paper PMC11451515

Experiments:
Settings in all cases: 48 h
[1] = tested on: NOMO1; assay: cell viability relative to DMSO control; higher = less cytotoxic
Procedure, shortened: (§1)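 Viability, reported as a per-plate percentage of DMSO wells with cell-free wells as background, came from CellTiter-Glo One luminescence. Reading took place after 48 h at 37°C. Before that, NOMO1 or SEM (500 cells/well) or P12-Ichikawa (1000 cells/well) leukemia cells, adapted for at least four passages in each medium, were seeded in 1536-well plates (5 μl) and pin-dosed with library compounds in DMSO, 47 μM to 0.79 nM over 11 threefold points.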

[2] = tested on: P12-Ichikawa; assay: as above
Procedure, shortened: as §1

[3] = tested on: SEM cells; assay: as above
Procedure, shortened: as §1

[4] = tested on: NOMO1; assay: AUC of viability dose-response curve (% viability x log10 dose units); higher = less sensitive
Procedure, shortened: (§2)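 Leukemia cells adapted to each medium were seeded in 1536-well plates (500 or 1000 cells/well) and given library compounds in DMSO for 48 h at 37°C. The 11 threefold doses spanned 47 μM to 0.79 nM, and CellTiter-Glo One luminescence was normalised per plate to DMSO and cell-free wells before four-parameter log-logistic fitting on log10 dose. Area under the curve was integrated with the trapezoidal rule, scaling curves above full viability and removing curves that failed quality control.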

[5] = tested on: P12-Ichikawa; assay: as above
Procedure, shortened: as §2

[6] = tested on: SEM cells; assay: as above
Procedure, shortened: as §2

O=C(O)C(=O)c1cn(Cc2ccccc2)c2ccc(-c3ccc(OC(F)(F)F)cc3)cc12
cell viability [%]
Settings	[1]	[2]	[3]
HPLM + 10% dialyzed FBS, 0.000781 µM	101	106	102
HPLM + 10% dialyzed FBS, 0.00234 µM	102	105	126
HPLM + 10% dialyzed FBS, 0.00702 µM	105	109	116
HPLM + 10% dialyzed FBS, 0.0211 µM	107	110	117
HPLM + 10% dialyzed FBS, 0.0632 µM	108	111	107
HPLM + 10% dialyzed FBS, 0.19 µM	108	109	108
HPLM + 10% dialyzed FBS, 0.569 µM	110	97.6	109
HPLM + 10% dialyzed FBS, 1.71 µM	81.4	103	110
HPLM + 10% dialyzed FBS, 5.12 µM	91.3	98.2	122
HPLM + 10% dialyzed FBS, 15.4 µM	90.6	95	46.2
HPLM + 10% dialyzed FBS, 46.1 µM	88.5	93.4	97.5
RPMI 5 mM glucose + 10% FBS, 0.000781 µM	93.5	99.9	119
RPMI 5 mM glucose + 10% FBS, 0.00234 µM	94.8	109	106
RPMI 5 mM glucose + 10% FBS, 0.00702 µM	90.3	102	104
RPMI 5 mM glucose + 10% FBS, 0.0211 µM	109	102	103
RPMI 5 mM glucose + 10% FBS, 0.0632 µM	96	100	98.7
RPMI 5 mM glucose + 10% FBS, 0.19 µM	100	99.9	102
RPMI 5 mM glucose + 10% FBS, 0.569 µM	104	109	95.2
RPMI 5 mM glucose + 10% FBS, 1.71 µM	89.6	103	108
RPMI 5 mM glucose + 10% FBS, 5.12 µM	97.8	102	97.3
RPMI 5 mM glucose + 10% FBS, 15.4 µM	96.1	98.4	45.1
RPMI 5 mM glucose + 10% FBS, 46.1 µM	89.5	87	88.1
RPMI 5 mM glucose + 10% dialyzed FBS, 0.000781 µM	106	95.9	110
RPMI 5 mM glucose + 10% dialyzed FBS, 0.00234 µM	96.8	103	94.6
RPMI 5 mM glucose + 10% dialyzed FBS, 0.00702 µM	104	98.7	102
RPMI 5 mM glucose + 10% dialyzed FBS, 0.0211 µM	119	101	99
RPMI 5 mM glucose + 10% dialyzed FBS, 0.0632 µM	97.8	101	98.6
RPMI 5 mM glucose + 10% dialyzed FBS, 0.19 µM	95.3	97.2	84.2
RPMI 5 mM glucose + 10% dialyzed FBS, 0.569 µM	100	94.4	116
RPMI 5 mM glucose + 10% dialyzed FBS, 1.71 µM	85.2	91.6	89.1
RPMI 5 mM glucose + 10% dialyzed FBS, 5.12 µM	93	102	101
RPMI 5 mM glucose + 10% dialyzed FBS, 15.4 µM	98.4	99.6	30.4
RPMI 5 mM glucose + 10% dialyzed FBS, 46.1 µM	80.8	90.2	84.2

AUC of viability dose-response curve
Settings	[4]	[5]	[6]
HPLM + 10% dialyzed FBS	449	456	451
RPMI 5 mM glucose + 10% FBS	460	471	448
RPMI 5 mM glucose + 10% dialyzed FBS	443	466	444

O=C(O)c1cc(/N=N/c2ccc([S+](=O)([O-])Nc3ccccn3)cc2)ccc1O
cell viability [%]
Settings	[1]	[2]	[3]
HPLM + 10% dialyzed FBS, 0.000781 µM	102	108	84.9
HPLM + 10% dialyzed FBS, 0.00234 µM	113	107	108
HPLM + 10% dialyzed FBS, 0.00702 µM	108	112	95.3
HPLM + 10% dialyzed FBS, 0.0211 µM	104	102	76.3
HPLM + 10% dialyzed FBS, 0.0632 µM	121	113	101
HPLM + 10% dialyzed FBS, 0.19 µM	109	116	103
HPLM + 10% dialyzed FBS, 0.569 µM	104	116	122
HPLM + 10% dialyzed FBS, 1.71 µM	115	107	106
HPLM + 10% dialyzed FBS, 5.12 µM	111	106	110
HPLM + 10% dialyzed FBS, 15.4 µM	105	98.6	90.8
HPLM + 10% dialyzed FBS, 46.1 µM	91	92.3	98.2
RPMI 5 mM glucose + 10% FBS, 0.000781 µM	101	108	98.8
RPMI 5 mM glucose + 10% FBS, 0.00234 µM	107	111	101
RPMI 5 mM glucose + 10% FBS, 0.00702 µM	115	105	108
RPMI 5 mM glucose + 10% FBS, 0.0211 µM	96.8	110	71.9
RPMI 5 mM glucose + 10% FBS, 0.0632 µM	99.2	119	103
RPMI 5 mM glucose + 10% FBS, 0.19 µM	102	115	114
RPMI 5 mM glucose + 10% FBS, 0.569 µM	102	114	112
RPMI 5 mM glucose + 10% FBS, 1.71 µM	98.2	122	97.2
RPMI 5 mM glucose + 10% FBS, 5.12 µM	114	113	89.3
RPMI 5 mM glucose + 10% FBS, 15.4 µM	98.7	111	116
RPMI 5 mM glucose + 10% FBS, 46.1 µM	97.6	108	75.1
RPMI 5 mM glucose + 10% dialyzed FBS, 0.000781 µM	95.1	103	91.7
RPMI 5 mM glucose + 10% dialyzed FBS, 0.00234 µM	96.9	114	102
RPMI 5 mM glucose + 10% dialyzed FBS, 0.00702 µM	109	110	96.2
RPMI 5 mM glucose + 10% dialyzed FBS, 0.0211 µM	94.3	102	76.8
RPMI 5 mM glucose + 10% dialyzed FBS, 0.0632 µM	106	120	117
RPMI 5 mM glucose + 10% dialyzed FBS, 0.19 µM	97	114	91.5
RPMI 5 mM glucose + 10% dialyzed FBS, 0.569 µM	115	119	97.5
RPMI 5 mM glucose + 10% dialyzed FBS, 1.71 µM	111	120	106
RPMI 5 mM glucose + 10% dialyzed FBS, 5.12 µM	91.2	110	95.5
RPMI 5 mM glucose + 10% dialyzed FBS, 15.4 µM	98.9	102	89.4
RPMI 5 mM glucose + 10% dialyzed FBS, 46.1 µM	102	102	82.1

AUC of viability dose-response curve
Settings	[4]	[5]	[6]
HPLM + 10% dialyzed FBS	471	465	452
RPMI 5 mM glucose + 10% FBS	466	468	465
RPMI 5 mM glucose + 10% dialyzed FBS	470	474	453

O=c1cc(-c2ccc(O)c(O)c2)oc2cc(O)cc(O)c12
[3], HPLM + 10% dialyzed FBS
Settings	cell viability [%]
0.000781 µM	107
0.00234 µM	113
0.00702 µM	126
0.0211 µM	127
0.0632 µM	134
0.19 µM	134
0.569 µM	142
1.71 µM	152
5.12 µM	156
15.4 µM	129
46.1 µM	129

AUC of viability dose-response curve
Settings	[4]	[5]	[6]
HPLM + 10% dialyzed FBS	458	473	449
RPMI 5 mM glucose + 10% FBS	461	464	454
RPMI 5 mM glucose + 10% dialyzed FBS	461	467	459

O=C(N[C@H](CO)[C@H](O)c1ccc([N+](=O)[O-])cc1)C(Cl)Cl
[3], HPLM + 10% dialyzed FBS
Settings	cell viability [%]
0.000781 µM	115
0.00234 µM	119
0.00702 µM	125
0.0211 µM	121
0.0632 µM	126
0.19 µM	125
0.569 µM	128
1.71 µM	132
5.12 µM	128
15.4 µM	118
46.1 µM	113

AUC of viability dose-response curve
Settings	[4]	[5]	[6]
HPLM + 10% dialyzed FBS	477	471	474
RPMI 5 mM glucose + 10% FBS	467	466	475
RPMI 5 mM glucose + 10% dialyzed FBS	467	462	475
